Data on 4 molecules can be found in the supplement of paper PMC10307832.

In one assay the test system is NCI-H838. The assay is described as follows: relative viability (nuclei count vs DMSO), 5 days (fraction); higher = more cells survive. The conditions noted are these: first compound 0.6325 µM. The procedure, abridged:
(§1)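 Five library-drug doses in √10 steps were combined with a fixed anchor-drug dose, or a single drug was given alone, by pin tool to lung cancer cell lines in 1536-well plates the day after seeding. Nuclei were stained and counted after 5 days. Relative viability is the nuclei count in treated wells over that in vehicle wells, taken as the median of duplicate plates.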
Consider `COCC1(CO)C(=O)C2CCN1CC2` (configuration not stated) [PRIMA-1MET] + CC(C)C[C@H](NC(=O)[C@H](Cc1ccccc1)NC(=O)c1cnccn1)B(O)O [Bortezomib] (partner 0.002 µM), for which the relative viability is 0.652.
Same read-out and setting: the result for `COCC1(CO)C(=O)C2CCN1CC2` (configuration not stated) [PRIMA-1MET] + Cc1nc(NC(=O)N2CCC[C@H]2C(N)=O)sc1-c1ccnc(C(C)(C)C(F)(F)F)c1 [Alpelisib] (partner 2 µM) reads 0.968.

Still in this assay, the particulars now being: first compound 2 µM.
`COCC1(CO)C(=O)C2CCN1CC2` (configuration not stated) [PRIMA-1MET] + CS(=O)(=O)CCNCc1ccc(-c2ccc3ncnc(Nc4ccc(OCc5cccc(F)c5)c(Cl)c4)c3c2)o1 [Lapatinib] (partner 2 µM) yielded a relative viability of 0.801.
Still for that read-out and setting: the result for `COCC1(CO)C(=O)C2CCN1CC2` (configuration not stated) [PRIMA-1MET] + C[C@]1(O)C[C@@H](c2nc(-c3ccc4ccc(-c5ccccc5)nc4c3)c3c(N)nccn32)C1 [Linsitinib] (partner 1 µM) reads 1.04.
Still for that read-out and setting: the result for `COCC1(CO)C(=O)C2CCN1CC2` (configuration not stated) [PRIMA-1MET] + CC(C)C[C@H](NC(=O)[C@H](Cc1ccccc1)NC(=O)c1cnccn1)B(O)O [Bortezomib] (partner 0.002 µM) reads 0.745; that for `COCC1(CO)C(=O)C2CCN1CC2` (configuration not stated) [PRIMA-1MET] + Cc1nc(NC(=O)N2CCC[C@H]2C(N)=O)sc1-c1ccnc(C(C)(C)C(F)(F)F)c1 [Alpelisib] (partner 2 µM), 1.06.

The assay is the same for the next values; noted with them: first compound 6.325 µM.
`COCC1(CO)C(=O)C2CCN1CC2` (configuration not stated) [PRIMA-1MET] + CS(=O)(=O)CCNCc1ccc(-c2ccc3ncnc(Nc4ccc(OCc5cccc(F)c5)c(Cl)c4)c3c2)o1 [Lapatinib] (partner 2 µM) registered a relative viability of 1.06.
Same read-out and setting: the result for `COCC1(CO)C(=O)C2CCN1CC2` (configuration not stated) [PRIMA-1MET] + C[C@]1(O)C[C@@H](c2nc(-c3ccc4ccc(-c5ccccc5)nc4c3)c3c(N)nccn32)C1 [Linsitinib] (partner 1 µM) reads 1.14.
`COCC1(CO)C(=O)C2CCN1CC2` (configuration not stated) [PRIMA-1MET] + CC(C)C[C@H](NC(=O)[C@H](Cc1ccccc1)NC(=O)c1cnccn1)B(O)O [Bortezomib] (partner 0.002 µM): the relative viability came out at 0.978.
The same measure, in the same setting: the same measure for `COCC1(CO)C(=O)C2CCN1CC2` (configuration not stated) [PRIMA-1MET] + Cc1nc(NC(=O)N2CCC[C@H]2C(N)=O)sc1-c1ccnc(C(C)(C)C(F)(F)F)c1 [Alpelisib] (partner 2 µM): 1.13.

Staying with this assay, now noted: first compound 20 µM.
In turn, `COCC1(CO)C(=O)C2CCN1CC2` (configuration not stated) [PRIMA-1MET] + CS(=O)(=O)CCNCc1ccc(-c2ccc3ncnc(Nc4ccc(OCc5cccc(F)c5)c(Cl)c4)c3c2)o1 [Lapatinib] (partner 2 µM) displayed a relative viability of 0.197.
The same measure, in the same setting: the result for `COCC1(CO)C(=O)C2CCN1CC2` (configuration not stated) [PRIMA-1MET] + C[C@]1(O)C[C@@H](c2nc(-c3ccc4ccc(-c5ccccc5)nc4c3)c3c(N)nccn32)C1 [Linsitinib] (partner 1 µM) reads 1.06.
The same measure, in the same setting: the result for `COCC1(CO)C(=O)C2CCN1CC2` (configuration not stated) [PRIMA-1MET] + CC(C)C[C@H](NC(=O)[C@H](Cc1ccccc1)NC(=O)c1cnccn1)B(O)O [Bortezomib] (partner 0.002 µM) reads 0.263.
The same measure, in the same setting: the same measure for `COCC1(CO)C(=O)C2CCN1CC2` (configuration not stated) [PRIMA-1MET] + Cc1nc(NC(=O)N2CCC[C@H]2C(N)=O)sc1-c1ccnc(C(C)(C)C(F)(F)F)c1 [Alpelisib] (partner 2 µM): 0.61.

A further assay concerns EBC-1. The description is as above. Particulars: first compound 0.2 µM. In a few lines: as §1
Turning to `COCC1(CO)C(=O)C2CCN1CC2` (configuration not stated) [PRIMA-1MET] + CS(=O)(=O)CCNCc1ccc(-c2ccc3ncnc(Nc4ccc(OCc5cccc(F)c5)c(Cl)c4)c3c2)o1 [Lapatinib] (partner 2 µM), the relative viability turned out to be 0.22.
On the same count and under the same terms, the same measure for `COCC1(CO)C(=O)C2CCN1CC2` (configuration not stated) [PRIMA-1MET] + C[C@]1(O)C[C@@H](c2nc(-c3ccc4ccc(-c5ccccc5)nc4c3)c3c(N)nccn32)C1 [Linsitinib] (partner 1 µM): 1.02; for `COCC1(CO)C(=O)C2CCN1CC2` (configuration not stated) [PRIMA-1MET] + CC(C)C[C@H](NC(=O)[C@H](Cc1ccccc1)NC(=O)c1cnccn1)B(O)O [Bortezomib] (partner 0.002 µM): 0.581; for `COCC1(CO)C(=O)C2CCN1CC2` (configuration not stated) [PRIMA-1MET] + Cc1nc(NC(=O)N2CCC[C@H]2C(N)=O)sc1-c1ccnc(C(C)(C)C(F)(F)F)c1 [Alpelisib] (partner 2 µM): 0.87.

Still in this assay, the particulars now being: first compound 0.6325 µM.
Consider `COCC1(CO)C(=O)C2CCN1CC2` (configuration not stated) [PRIMA-1MET] + CS(=O)(=O)CCNCc1ccc(-c2ccc3ncnc(Nc4ccc(OCc5cccc(F)c5)c(Cl)c4)c3c2)o1 [Lapatinib] (partner 2 µM), for which the relative viability turned out to be 0.214.
The molecule `COCC1(CO)C(=O)C2CCN1CC2` (configuration not stated) [PRIMA-1MET] + C[C@]1(O)C[C@@H](c2nc(-c3ccc4ccc(-c5ccccc5)nc4c3)c3c(N)nccn32)C1 [Linsitinib] (partner 1 µM) registered a relative viability of 0.972.
Same read-out and setting: the same measure for `COCC1(CO)C(=O)C2CCN1CC2` (configuration not stated) [PRIMA-1MET] + CC(C)C[C@H](NC(=O)[C@H](Cc1ccccc1)NC(=O)c1cnccn1)B(O)O [Bortezomib] (partner 0.002 µM): 0.549; for `COCC1(CO)C(=O)C2CCN1CC2` (configuration not stated) [PRIMA-1MET] + Cc1nc(NC(=O)N2CCC[C@H]2C(N)=O)sc1-c1ccnc(C(C)(C)C(F)(F)F)c1 [Alpelisib] (partner 2 µM): 0.921.

The assay is the same for the next values; noted with them: first compound 2 µM.
With `COCC1(CO)C(=O)C2CCN1CC2` (configuration not stated) [PRIMA-1MET] + CS(=O)(=O)CCNCc1ccc(-c2ccc3ncnc(Nc4ccc(OCc5cccc(F)c5)c(Cl)c4)c3c2)o1 [Lapatinib] (partner 2 µM), the relative viability is 0.203.
`COCC1(CO)C(=O)C2CCN1CC2` (configuration not stated) [PRIMA-1MET] + C[C@]1(O)C[C@@H](c2nc(-c3ccc4ccc(-c5ccccc5)nc4c3)c3c(N)nccn32)C1 [Linsitinib] (partner 1 µM) registered a relative viability of 0.758.
Still for that read-out and setting: the result for `COCC1(CO)C(=O)C2CCN1CC2` (configuration not stated) [PRIMA-1MET] + CC(C)C[C@H](NC(=O)[C@H](Cc1ccccc1)NC(=O)c1cnccn1)B(O)O [Bortezomib] (partner 0.002 µM) reads 0.572; that for `COCC1(CO)C(=O)C2CCN1CC2` (configuration not stated) [PRIMA-1MET] + Cc1nc(NC(=O)N2CCC[C@H]2C(N)=O)sc1-c1ccnc(C(C)(C)C(F)(F)F)c1 [Alpelisib] (partner 2 µM), 0.83.

Still in this assay, the particulars now being: first compound 6.325 µM.
Regarding `COCC1(CO)C(=O)C2CCN1CC2` (configuration not stated) [PRIMA-1MET] + CS(=O)(=O)CCNCc1ccc(-c2ccc3ncnc(Nc4ccc(OCc5cccc(F)c5)c(Cl)c4)c3c2)o1 [Lapatinib] (partner 2 µM), the relative viability was 0.216.
